Consider two molecules from patent publication US8901089B2, “Composition comprising an amorphous non-crystalline glass form of roxithromycin” (North-West University, priority 2009, dated 2014).

SMILES strings stand for the structures. Values after ≈ are worked out from the molar mass of the structure shown.

Assay type in all cases: physicochemical
Series [1] can be described thus: Solubility of Form-II and roxithromycin raw material in three media, HPLC assay. The settings on record: for solubility at 24 h: 37 °C, thermodynamic from solid. The protocol:
In further analysis of the novel Form-II, five test tubes with 100 mg of Form-II and 10 ml of one of the following solubility mediums respectively, namely, acetate buffer (pH 4.5), phosphate buffer (pH 6.8) and distilled water were filled.
The test tubes are then fixed to a rotating axis (54 rpm) and submerged in a water bath at 37 degrees Celsius±2 degrees Celsius for twenty-four hours. The contents of the test tubes are filtered through a 0.45 μm filter and subsequently the respective filtrates are diluted.
(§1) The concentrations of the five filtrates of Form-II and roxithromycin raw material respectively are determined by HPLC (high performance liquid chromatography) assay. The HPLC assay is performed utilising a mobile phase of 30 g/L ammonium dihydrogen phosphate buffer at pH 5.3. The pH is adjusted with sodium hydroxide solution and 310 ml of the buffer solution is mixed with 690 ml acetonitrile. A Luna C18 150 mm×4.6 mm column is used with a flow rate of 1.0 ml/min and a wavelength of 205 nm. Validation of this method provides a linear regression r^2 of 0.9998.

Series [2] in a line: Exposure of Form-II to 50 degrees Celsius at zero and 75% relative humidity (microscopy). The settings on record: 18 days. An excerpt:
Form-II was further subjected to a temperature of 50 degrees Celsius at respectively zero (FIG. 3) and 75% relative humidity (FIG. 4) for 18 days.

Series [3] can be described thus: Vapour sorption experiments (moisture isotherm). The source says:
The sharp increase is attributed to the condensation of water on the sample holder.

Series [4] can be described thus: Chemical stability by HPLC analysis. The conditions noted are these: after solubility test. The method, then: as §1

The term solubility denotes the dissolved amount per volume that the medium holds.

Turning to `CC[C@H]1OC(=O)[C@H](C)[C@@H](O[C@H]2C[C@@](C)(OC)[C@@H](O)[C@H](C)O2)[C@H](C)[C@@H](O[C@@H]2O[C@H](C)C[C@H](N(C)C)[C@H]2O)[C@](C)(O)C[C@@H](C)C(=NOCOCCOC)[C@H](C)[C@@H](O)[C@]1(C)O` [Form-II, 3R,4S,5S,6R,7R,9R,11S,12R,13S,14R-6-[(2S,3R,4S,6R)-4-dimethylamino-3-hydroxy-6-methyloxan-2-yl]oxy-14-ethyl-7,12,13-trihydroxy-4-[(2R,4R,5S,6S)-5-hydroxy-4-methoxy-4,6-dimethyloxan-2-yl]oxy-10-(2-methoxyethoxymethoxyimino)-3,5,7,9,11,13-hexamethyl-1-oxacyclotetradecan-2-one], the solubility in series [1] (acetate buffer (pH 4.5), 37 degrees Celsius, twenty-four hours) is 762.71 ± 2.6 µg/mL (≈ 911 µM); in series [1] (distilled water, 37 degrees Celsius, twenty-four hours) it was 32.86 ± 3.5 µg/mL (≈ 39.3 µM); in series [1] (phosphate buffer (pH 6.8), 37 degrees Celsius, twenty-four hours), 134.4 ± 4.9 µg/mL (≈ 161 µM). Besides, the “more soluble than monohydrated roxithromycin (theoretical solubility of 1.8 μg/ml)” value in series [1] (in water) amounted to 1798%. Also, the crystallisation entry in series [2] (75% relative humidity) and in series [2] (zero relative humidity) was “no crystallisation” throughout. In addition, the “increase in weight (moisture isotherm)” value in series [3] (from 70 to 90% RH, attributed to condensation of water on the sample holder) is “up to 4%”; in series [3] (relative humidity up to 60% RH) it was “approximately 1.5%”. Moreover, in series [3] (from 90 to 0% RH, returned to starting weight), the “weight loss upon decreasing the humidity” value came out at 4%. Also, the “solid state after high levels of moisture” value in series [3] (vapour sorption up to 90% RH) is listed as “remained amorphous”. Further, the “chemical stability (HPLC analysis)” value in series [4] is reported as “chemically stable”.

With `CC[C@H]1OC(=O)[C@H](C)[C@@H](O[C@H]2C[C@@](C)(OC)[C@@H](O)[C@H](C)O2)[C@H](C)[C@@H](O[C@@H]2O[C@H](C)C[C@H](N(C)C)[C@H]2O)[C@](C)(O)C[C@@H](C)/C(=N\OCOCCOC)[C@H](C)[C@@H](O)[C@]1(C)O` [roxithromycin raw material, roxithromycin], the solubility at 24 h in series [1] (pH 4.5, aqueous buffer) was determined as 370 ± 8.3 µg/mL (≈ 442 µM); in series [1] (pH 6.8, aqueous buffer), 74.8 ± 5.1 µg/mL (≈ 89.4 µM); in series [1] (water), 1.7 ± 0.6 µg/mL (≈ 2.03 µM). For the same molecule, the solubility was determined as 370 µg/mL (≈ 442 µM) in series [1] (pH 4.5, aqueous buffer); 74.8 µg/mL (≈ 89.4 µM) in series [1] (pH 6.8, aqueous buffer); 1.8 µg/mL (≈ 2.15 µM) in series [1] (water).
